Laboratory results as given in patent publication US20060003924A1, “Sulfation-independent L-selectin or E-selectin ligand (HCELL) and therapeutics thereof” (priority 1994, published 2006).
“Also recorded” adds a separate entry of the source. Where two headings read alike, the source gives them in different places.

What was measured:
KG1a [1] = experiment: Lymphocyte adherence assay on KG1a cytocentrifuge preparations (Examples 2-6); type: cell-based, human; conditions: for return of binding activity following desialylation: KG1a after neuraminidase
KG1a cells = experiment: Stamper-Woodruff lymphocyte adherence assay on KG1a cytospins (Example 9); type: cell-based, human; conditions: for L-selectin ligand Activity of KG1a Cells Following Protease or Phospholipase C Treatment, % Control Binding: enzymatic treatment of cells in suspension before cytocentrifugation
KG1a CD44 = molecular target: T1, KG1a CD44 (Homo sapiens, UniProt P16070); experiment: CHO-E cell rolling over blotted or spotted KG1a membrane proteins / immunoprecipitated CD44; type: cell-based; conditions: 3.8 dynes/cm^2
T1 construct: was immunoprecipitated from KG1a membrane protein (50 μg); endogenous in cells; host or cells: KG1a cells (membrane preparation, Hermes-1 immunoprecipitate)
T1 sequence (P16070 21-361 isoform P16070-12 limits assumed): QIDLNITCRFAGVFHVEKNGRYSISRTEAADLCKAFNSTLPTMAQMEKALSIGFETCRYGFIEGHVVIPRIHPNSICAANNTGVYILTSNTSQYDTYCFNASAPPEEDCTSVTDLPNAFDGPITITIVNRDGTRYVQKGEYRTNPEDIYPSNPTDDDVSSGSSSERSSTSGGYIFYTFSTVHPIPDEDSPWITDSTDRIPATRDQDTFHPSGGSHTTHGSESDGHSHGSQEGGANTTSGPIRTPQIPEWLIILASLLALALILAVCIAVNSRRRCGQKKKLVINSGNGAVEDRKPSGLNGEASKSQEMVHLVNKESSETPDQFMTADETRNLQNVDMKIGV

[2] = test system: E-selectin ligand activity on KG1a and HL-60 cells; experiment: Parallel-plate flow chamber: CHO-E cell rolling on fixed hematopoietic cell monolayers; type: cell-based, human; conditions: 2.8 dynes/cm^2, 3.8 dynes/cm^2
LN HEV = experiment: Lymphocyte adherence to frozen rat lymph node sections (LN HEV, positive control); type: cell-based
Method: Lymphocyte Adherence Assay. […] Cytocentrifuge preparations of KG1a or other cell lines were made on a Cytospin 3 Cytocentrifuge (Shandon Lipshaw, Pittsburgh, Pa.). Frozen rat LN sections […] thick were mounted on slides, and lymphocyte binding to LN HEV served as a positive control in all experiments.
Lymphocyte suspensions ([…]) were overlaid onto cytocentrifuge or LN sections in duplicate and placed on a rotating platform (80 rpm) at 4° C. for 30 minutes. Slides were then rinsed in cold PBS to remove non-adherent lymphocytes, fixed in 3% glutaraldehyde, and stained with methyl green-thionin. Slides were examined under the light microscope for adherence of lymphocytes to KG1a or LN HEV.

CD43 = experiment: Flow cytometry of sialic acid-dependent L60 epitope of CD43 on KG1a after neuraminidase; type: cell-based, human; conditions: KG1a cultured with the agent
E-selectin = molecular target: T2, E-selectin (Homo sapiens, UniProt P16581); experiment: E-selectin ligand activity of immunoprecipitated proteins (CHO-E cell rolling); type: cell-based; conditions: for E-selectin-mediated CHO-E cell rolling on immunoprecipitated protein spotted onto plastic dishes: 3.8 dynes/cm^2
T2 construct: expressed in transfected cells; host or cells: CHO cells (CHO-E)
T2 sequence (P16581 22-610): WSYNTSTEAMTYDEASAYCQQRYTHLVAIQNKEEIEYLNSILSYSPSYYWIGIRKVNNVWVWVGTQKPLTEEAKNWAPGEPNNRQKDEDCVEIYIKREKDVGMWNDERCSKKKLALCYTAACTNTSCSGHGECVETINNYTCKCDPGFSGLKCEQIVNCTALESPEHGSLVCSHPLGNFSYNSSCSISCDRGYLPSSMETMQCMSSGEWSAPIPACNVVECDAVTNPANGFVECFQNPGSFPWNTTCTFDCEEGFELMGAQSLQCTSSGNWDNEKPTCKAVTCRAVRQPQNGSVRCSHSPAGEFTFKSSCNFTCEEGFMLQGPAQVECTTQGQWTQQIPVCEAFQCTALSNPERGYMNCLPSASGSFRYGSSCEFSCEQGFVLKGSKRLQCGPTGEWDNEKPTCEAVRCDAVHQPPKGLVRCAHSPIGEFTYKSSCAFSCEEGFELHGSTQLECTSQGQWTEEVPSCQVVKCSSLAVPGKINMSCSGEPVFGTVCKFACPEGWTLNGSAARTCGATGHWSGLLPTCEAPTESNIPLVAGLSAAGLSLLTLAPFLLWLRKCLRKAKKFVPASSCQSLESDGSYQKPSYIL

KG1a [3] = experiment: KG1a cell viability by trypan blue exclusion; type: cell-based, human; conditions: KG1a after the treatment
[4] = LYMPHOCYTE TREATMENT, 1 mM EDTA, 10 mM mannose-6-P, 10 mg/ml PPME, 5 mg/ml fucoidin, 10 ng/ml PMA
[5] = 20 hr culture, no neuraminidase pretreatment, tunicamycin 15 ug/ml, cycloheximide 1.25 ug/ml
[6] = after neuraminidase, 24 hr culture with chlorate 10 mM, 20 hr culture with tunicamycin 15 ug/ml or cycloheximide 1.25 ug/ml
[7] = 24 h culture with inhibitor after 1 h neuraminidase (0.1 U/ml), tunicamycin 15 μg/ml, deoxymannojirimycin 0.4 mg/ml, swainsonine 40 μg/ml
[8] = inhibitor alone, 24 h, tunicamycin 15 μg/ml, deoxymannojirimycin 0.4 mg/ml, swainsonine 40 μg/ml
[9] = digestion then culture without inhibitor (neuraminidase 24 hour, bromelain 20 hour)

O=C(O)CN(CCN(CC(=O)O)CC(=O)O)CC(=O)O [EDTA]
lymphocyte binding to KG1a (result in words) (KG1a [1]): completely inhibited | Lymphocyte Adherence to KG1a, Mean of Binding (% of untreated control) (KG1a [1]; [4]): 0.3 % of Untreated Control | L-selectin ligand (HCELL) activity of KG1a / lymphocyte adherence (result in words) (KG1a cells): complete elimination | E-selectin ligand activity (CHO-E cell rolling) of KG1a membrane proteins / CD44 after treatment (KG1a CD44): no evidence of E-selectin-mediated adhesive interactions; also recorded: prevented CHO-E rolling | E-selectin ligand activity (CHO-E cell rolling) on KG1a and HL-60 cells [2]: completely inhibited; also recorded: no activity | lymphocyte binding to LN control sections / LN HEV (result in words) (LN HEV): completely inhibited

Tunicamycin
return of the L60 epitope of CD43 after neuraminidase (CD43): not inhibited | Lymphocyte Adherence to KG1a, Mean of Binding (% of untreated control) (KG1a [1]; [5]): 106.2 % of untreated control | return of binding activity following desialylation (KG1a [1]): blocked | Lymphocyte Adherence to KG1a, Mean of Binding (% of untreated control) (KG1a [1]; [6]): 0.4 % of untreated control | % Control Adhesion (KG1a cells; [7]): 1.0 % Control Adhesion | L-selectin ligand (HCELL) activity of KG1a / lymphocyte adherence (result in words) (KG1a cells; Stamper-Woodruff assay): completely prevented ligand re-expression | % Control Adhesion (KG1a cells; [8]): 96.5 % Control Adhesion

Chymotrypsin
lymphocyte binding to KG1a (result in words) (KG1a [1]): abrogated binding | Lymphocyte Adherence to KG1a, Mean of Binding (% of untreated control) (KG1a [1]; KG1A TREATMENT): 6.7 % of Untreated Control | L-selectin ligand (HCELL) activity of KG1a / lymphocyte adherence (result in words) (KG1a cells; Stamper-Woodruff assay): completely abrogates | L-selectin ligand Activity of KG1a Cells Following Protease or Phospholipase C Treatment, % Control Binding (KG1a cells): 6.7 % Control Binding | lymphocyte binding to LN control sections / LN HEV (result in words) (LN HEV): abrogated binding

KG1a CD44: HECA-452-reactive CD44 glycoform of KG1a, hematopoietic cell E-selectin/L-selectin ligand
E-selectin-mediated CHO-E cell rolling on immunoprecipitated protein spotted onto plastic dishes (E-selectin): rolling was observed

OC[C@H]1NC[C@@H](O)[C@@H](O)[C@@H]1O [Deoxymannojirimycin]
return of the L60 epitope of CD43 after neuraminidase (CD43): not inhibited | % Control Adhesion (KG1a cells; [7]): 22.5 % Control Adhesion | L-selectin ligand (HCELL) activity of KG1a / lymphocyte adherence (result in words) (KG1a cells; Stamper-Woodruff assay): markedly diminished | % Control Adhesion (KG1a cells; [8]): 107.5 % Control Adhesion

O=C[C@@H](O)[C@@H](O)[C@H](O)[C@H](O)COP(=O)(O)O [Mannose-6-P, D-mannose-6-phosphate]
lymphocyte binding to KG1a (result in words) (KG1a [1]): inhibited | Lymphocyte Adherence to KG1a, Mean of Binding (% of untreated control) (KG1a [1]; [4]): 5.7 % of Untreated Control | lymphocyte binding to LN control sections / LN HEV (result in words) (LN HEV): inhibited

Human Neutrophil Elastase: protease
L-selectin ligand (HCELL) activity of KG1a / lymphocyte adherence (result in words) (KG1a cells; Stamper-Woodruff assay): partially affects activity | L-selectin ligand Activity of KG1a Cells Following Protease or Phospholipase C Treatment, % Control Binding (KG1a cells): 25.4 % Control Binding

Bromelain
lymphocyte binding to KG1a (result in words) (KG1a [1]): abrogated binding | Lymphocyte Adherence to KG1a, Mean of Binding (% of untreated control) (KG1a [1]; KG1A TREATMENT): 3.8 % of Untreated Control | L-selectin ligand (HCELL) activity of KG1a / lymphocyte adherence (result in words) (KG1a cells; Stamper-Woodruff assay): completely abrogates | Mean % Control Binding (KG1a cells; [9]): 95.2 % Control Binding | L-selectin ligand Activity of KG1a Cells Following Protease or Phospholipase C Treatment, % Control Binding (KG1a cells): 3.8 % Control Binding | Mean % Control Binding (KG1a cells; t = 0, no culture): 3.8 % Control Binding | lymphocyte binding to LN control sections / LN HEV (result in words) (LN HEV): abrogated binding

Fucoidin
lymphocyte binding to KG1a (result in words) (KG1a [1]): inhibited | Lymphocyte Adherence to KG1a, Mean of Binding (% of untreated control) (KG1a [1]; [4]): 1.4 % of Untreated Control | lymphocyte binding to LN control sections / LN HEV (result in words) (LN HEV): inhibited

CC(C)C[C@H](NC(=O)[C@@H](NC(=O)N[C@@H](Cc1ccccc1)C(=O)O)[C@@H]1CCN=C(N)N1)C(=O)N[C@H](C=O)Cc1ccccc1 [chymostatin]
lymphocyte binding to KG1a (result in words) (KG1a [1]): prevented chymotrypsin effects

BMEC CD44: CD44 immunoprecipitated from human bone marrow endothelial cells
E-selectin ligand activity of immunoprecipitated CD44 (E-selectin; human bone marrow endothelial cells, Hermes-1 immunoprecipitate): did not possess any E-selectin ligand activity

O=S(=O)(F)Cc1ccccc1 [PMSF]
lymphocyte binding to KG1a (result in words) (KG1a [1]): prevented chymotrypsin effects

O[C@H]1[C@H]2[C@H](O)CCCN2C[C@H]1O [Swainsonine]
return of the L60 epitope of CD43 after neuraminidase (CD43): not inhibited | % Control Adhesion (KG1a cells; [7]): 26.6 % Control Adhesion | L-selectin ligand (HCELL) activity of KG1a / lymphocyte adherence (result in words) (KG1a cells; Stamper-Woodruff assay): markedly diminished | % Control Adhesion (KG1a cells; [8]): 95.5 % Control Adhesion

C[C@@H]1C[C@@H]([C@H](O)CC2CC(=O)NC(=O)C2)C(=O)[C@@H](C)C1 [Cycloheximide]
Lymphocyte Adherence to KG1a, Mean of Binding (% of untreated control) (KG1a [1]; [5]): 91.8 % of untreated control | return of binding activity following desialylation (KG1a [1]): blocked | Lymphocyte Adherence to KG1a, Mean of Binding (% of untreated control) (KG1a [1]; [6]): 0.5 % of untreated control | Mean % Control Binding (KG1a cells; 20 hour culture with cycloheximide 1.25 μg/ml, no neuraminidase or bromelain digestion): 91.8 % Control Binding | Mean % Control Binding (KG1a cells; after bromelain, 20 hour culture with cycloheximide 1.25 μg/ml): 0.6 % Control Binding | Mean % Control Binding (KG1a cells; after neuraminidase, 20 hour culture with cycloheximide 1.25 μg/ml): 0.5 % Control Binding

Neuraminidase: neuraminidase (sialidase), V. cholerae, Boehringer Mannheim
Cell viability (trypan blue exclusion) (KG1a [3]): > 99% | lymphocyte binding to KG1a (result in words) (KG1a [1]): abrogated binding | Lymphocyte Adherence to KG1a, Mean of Binding (% of untreated control) (KG1a [1]; KG1A TREATMENT): 3.1 % of Untreated Control | Lymphocyte Adherence to KG1a, Mean of Binding (% of untreated control) (KG1a [1]; KG1a treatment, t = 0, no culture): 0.02 % of untreated control | Lymphocyte Adherence to KG1a, Mean of Binding (% of untreated control) (KG1a [1]; neuraminidase then 24 hr culture): 101.3 % of untreated control | % Control Adhesion (KG1a cells; Neuraminidase 1 h then 24 h recovery): 99.3 % Control Adhesion | % Control Adhesion (KG1a cells; Neuraminidase (1 h), 0.1 U/ml): 1.0 % Control Adhesion | Mean % Control Binding (KG1a cells; [9]): 101.3 % Control Binding | Mean % Control Binding (KG1a cells; t = 0, no culture): 0.2 % Control Binding | E-selectin ligand activity (CHO-E cell rolling) of KG1a membrane proteins / CD44 after treatment (KG1a CD44): markedly ablated CHO-E cell rolling | E-selectin ligand activity (CHO-E cell rolling) on KG1a and HL-60 cells [2]: no activity | lymphocyte binding to LN control sections / LN HEV (result in words) (LN HEV): abrogated binding

B1: KG1a PSGL-1: P-selectin glycoprotein ligand-1 immunoprecipitated (4H10 moAb) from KG1a (protein, UniProt Q14242 42-412, looked up)
P-selectin glycoprotein …: QATEYEYLDYDFLPETEPPEMLRNSTDTTPLTGPGTPESTTVEPAARRSTGLDAGGAVTELTTELANMGNLSTDSAAMEIQTTQPAATEAQTTQPVPTEAQTTPLAATEAQTTRLTATEAQTTPLAATEAQTTPPAATEAQTTQPTGLEAQTTAPAAMEAQTTAPAAMEAQTTPPAAMEAQTTQTTAMEAQTTAPEATEAQTTQPTATEAQTTPLAAMEALSTEPSATEALSMEPTTKRGLFIPFSVSSVTHKGIPMAASNLSVNYPVGAPDHISVKQCLLAILILALVATIFFVCTVVLAVRLSRKGHMYPVRNYSPTEMVCISSLLPDGGEGPSATANGGLSKAKSPGLTPEPREDREGDDLTLHSFLP
modifications: KG1a cell glycoform
notes: P-selectin glycoprotein ligand-1 immunoprecipitated (4H10 moAb) from KG1a
E-selectin-mediated CHO-E cell rolling on immunoprecipitated protein spotted onto plastic dishes (E-selectin): no binding was observed | CHO-E rolling on immunoprecipitated protein (E-selectin; lower shear force of 0.6 dynes/cm^2): did occur
